Assay results from PubChem BioAssay (NCI).
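At the GI50, growth is halved. TGI denotes the concentration required for complete inhibition of growth.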

Experiments:
Test in all cases: DTP human tumour cell line panel, 384-well format
NCI-H522 lung = test system: NCI-H522 lung
SNB-75 CNS = test system: SNB-75 CNS
OVCAR-5 ovarian = test system: OVCAR-5 ovarian
DU-145 prostate = test system: DU-145 prostate
TK-10 renal = test system: TK-10 renal
SK-MEL-5 melanoma = test system: SK-MEL-5 melanoma
786-0 renal = test system: 786-0 renal
OVCAR-8 ovarian = test system: OVCAR-8 ovarian
CAKI-1 renal = test system: CAKI-1 renal
EKVX NSCLC = test system: EKVX NSCLC
NCI-H23 lung = test system: NCI-H23 lung
RPMI-8226 leukemia = test system: RPMI-8226 leukemia
UACC-62 melanoma = test system: UACC-62 melanoma
HOP-62 NSCLC = test system: HOP-62 NSCLC
LOX IMVI melanoma = test system: LOX IMVI melanoma
KM12 colon = test system: KM12 colon
HOP-92 NSCLC = test system: HOP-92 NSCLC
UO-31 renal = test system: UO-31 renal
RXF 393 renal = test system: RXF 393 renal
SF-268 CNS = test system: SF-268 CNS
HS 578T breast = test system: HS 578T breast
NCI/ADR-RES ovarian = test system: NCI/ADR-RES ovarian
OVCAR-4 ovarian = test system: OVCAR-4 ovarian
MCF7 breast = test system: MCF7 breast
SR leukemia = test system: SR leukemia
IGROV1 ovarian = test system: IGROV1 ovarian
MDA-MB-435 melanoma = test system: MDA-MB-435 melanoma
COLO 205 colon = test system: COLO 205 colon
SF-539 CNS = test system: SF-539 CNS
NCI-H322M lung = test system: NCI-H322M lung
MOLT-4 leukemia = test system: MOLT-4 leukemia
U251 glioblastoma = test system: U251 glioblastoma
A498 renal = test system: A498 renal
SN12C renal = test system: SN12C renal
SW-620 colon = test system: SW-620 colon
MDA-MB-468 breast = test system: MDA-MB-468 breast
CCRF-CEM leukemia = test system: CCRF-CEM leukemia
SK-MEL-2 melanoma = test system: SK-MEL-2 melanoma
SK-OV-3 ovarian = test system: SK-OV-3 ovarian
HT29 colon = test system: HT29 colon
OVCAR-3 ovarian = test system: OVCAR-3 ovarian
MALME-3M melanoma = test system: MALME-3M melanoma
NCI-H226 lung = test system: NCI-H226 lung
K-562 leukemia = test system: K-562 leukemia
SF-295 CNS = test system: SF-295 CNS
PC-3 prostate = test system: PC-3 prostate
BT-549 breast = test system: BT-549 breast
A549 NSCLC = test system: A549 NSCLC
SK-MEL-28 melanoma = test system: SK-MEL-28 melanoma
SNB-19 CNS = test system: SNB-19 CNS
HL-60(TB) leukemia = test system: HL-60(TB) leukemia
HCT-116 colon = test system: HCT-116 colon
NCI-H460 NSCLC = test system: NCI-H460 NSCLC
MDA-MB-231 breast = test system: MDA-MB-231 breast
HCT-15 colon = test system: HCT-15 colon
M14 melanoma = test system: M14 melanoma
UACC-257 melanoma = test system: UACC-257 melanoma
T-47D breast = test system: T-47D breast
HCC-2998 colon = test system: HCC-2998 colon

## CO[C@@H](C)Cn1c(=O)n(C)c2cnc3ccc(-c4cncc(C(C)(C)O)c4)cc3c21
NCI-H522 lung
  GI50: 104 nM
  TGI: 1630 nM
SNB-75 CNS
  GI50: 44 nM
  TGI: 502 nM
OVCAR-5 ovarian
  GI50: 206 nM
  TGI: 1690 nM
DU-145 prostate
  GI50: 84.6 nM
  TGI: 2690 nM
TK-10 renal
  GI50: 220 nM
  TGI: 907 nM
SK-MEL-5 melanoma
  GI50: 157 nM
  TGI: 463 nM
786-0 renal
  GI50: 133 nM
  TGI: 4550 nM
OVCAR-8 ovarian
  GI50: 86.8 nM
  TGI: 11200 nM
CAKI-1 renal
  GI50: 76.1 nM
  TGI: 485 nM
EKVX NSCLC
  GI50: 96.1 nM
  TGI: 885 nM
NCI-H23 lung
  GI50: 319 nM
  TGI: 2600 nM
RPMI-8226 leukemia
  GI50: 28.2 nM
  TGI: 78.8 nM
UACC-62 melanoma
  GI50: 102 nM
  TGI: 719 nM
HOP-62 NSCLC
  GI50: 109 nM
  TGI: 1340 nM
LOX IMVI melanoma
  GI50: 78.2 nM
  TGI: 918 nM
KM12 colon
  GI50: 136 nM
  TGI: 12900 nM
HOP-92 NSCLC
  GI50: 150 nM
  TGI: 702 nM
UO-31 renal
  GI50: 122 nM
  TGI: 6310 nM
RXF 393 renal
  GI50: 54.6 nM
  TGI: 1370 nM
SF-268 CNS
  GI50: 293 nM
  TGI: 1770 nM
HS 578T breast
  GI50: 35.7 nM
  TGI: 217 nM
NCI/ADR-RES ovarian
  GI50: 2150 nM
  TGI: 15400 nM
OVCAR-4 ovarian
  GI50: 126 nM
  TGI: 722 nM
MCF7 breast
  GI50: 71.1 nM
  TGI: 1670 nM
SR leukemia
  GI50: 20.2 nM
  TGI: 55 nM
IGROV1 ovarian
  GI50: 35 nM
  TGI: 173 nM
MDA-MB-435 melanoma
  GI50: 194 nM
  TGI: 2360 nM
COLO 205 colon
  GI50: 186 nM
  TGI: 1480 nM
SF-539 CNS
  GI50: 141 nM
  TGI: 1970 nM
NCI-H322M lung
  GI50: 139 nM
  TGI: 2300 nM
MOLT-4 leukemia
  GI50: 81.2 nM
  TGI: 299 nM
U251 glioblastoma
  GI50: 221 nM
  TGI: 3460 nM
A498 renal
  GI50: 33 nM
  TGI: 374 nM
SN12C renal
  GI50: 84.9 nM
  TGI: 3570 nM
SW-620 colon
  GI50: 197 nM
  TGI: 1360 nM
MDA-MB-468 breast
  GI50: 165 nM
  TGI: 574 nM
CCRF-CEM leukemia
  GI50: 77.9 nM
  TGI: 707 nM
SK-MEL-2 melanoma
  GI50: 243 nM
  TGI: 592 nM
SK-OV-3 ovarian
  GI50: 88.4 nM
  TGI: 1010 nM
HT29 colon
  GI50: 226 nM
  TGI: 11100 nM
OVCAR-3 ovarian
  GI50: 84.6 nM
  TGI: 894 nM
MALME-3M melanoma
  GI50: 62.6 nM
  TGI: 327 nM
NCI-H226 lung
  GI50: 109 nM
  TGI: 667 nM
K-562 leukemia
  GI50: 162 nM
  TGI: 11800 nM
SF-295 CNS
  GI50: 57 nM
  TGI: 413 nM
PC-3 prostate
  GI50: 84.2 nM
  TGI: 740 nM
BT-549 breast
  GI50: 96.2 nM
  TGI: 503 nM
A549 NSCLC
  GI50: 70.7 nM
  TGI: 1180 nM
SK-MEL-28 melanoma
  GI50: 221 nM
  TGI: 3480 nM
SNB-19 CNS
  GI50: 334 nM
  TGI: 12600 nM
HL-60(TB) leukemia
  GI50: 463 nM
  TGI: 1610 nM
HCT-116 colon
  GI50: 390 nM
  TGI: 1770 nM
NCI-H460 NSCLC
  GI50: 45.1 nM
  TGI: 1570 nM
MDA-MB-231 breast
  GI50: 57.1 nM
  TGI: 20600 nM
HCT-15 colon
  GI50: 154 nM
  TGI: 12500 nM
M14 melanoma
  GI50: 151 nM
  TGI: 1850 nM
UACC-257 melanoma
  GI50: 429 nM
  TGI: 2700 nM
T-47D breast
  GI50: 77.1 nM
  TGI: 406 nM
HCC-2998 colon
  GI50: 188 nM
  TGI: 2110 nM
